Measurements from patent US9844546B2, “Antibody against human HIF hydroxylase” (OXFORD UNIVERSITY INNOVATION LIMITED, priority 2001, dated 2017).
“Also recorded” adds a separate entry of the source.

Legend:
[1] = test system: HIF hydroxylase (HPH activity); experiment: HIF hydroxylase (HPH) inhibition, statements of the description; type: biochemical
[2] = test system: angiogenesis in subcutaneous polyurethane sponge; experiment: Murine subcutaneous sponge angiogenesis assay; type: in vivo, mouse; details: 1 mM, 100 microliters injected days 1, 2, 4, 5; day 7; versus solvent
Procedure: Implantation of a polyurethane sponge subcutaneously in a mouse provides an inflammatory stimulus to angiogenesis and is a well established model for assessing the pro- and anti-angiogenic effects of compounds. To test the effects of dimethyl oxalylglycine in vivo, sterile 8 mm sponge discs were inserted under the dorsal skin of C57 Black mice on Day 0. Test solutions were injected through the skin into the sponges of mice once per day on days 1, 2, 4 and 5. Individual mice received 100 microliters aliquots of either sterile dimethyloxalylglycine (0.1 mM, 1 mM or 10 mM) or carrier solution. Animals were sacrificed on day 7 and the sponges removed. The sponges were fixed in 3.7% formaldehyde, paraffin embedded and stained immunohistochemically for von Willebrand factor to identify blood vessels.
Artificial activation of the HIF signalling pathway using the methods of the invention should induce angiogenesis and will therefore be of potential therapeutic use in ischaemic disease. We tested the effect of polypeptide induced HIF stabilisation in an in vitro angiogenesis assay, co-culturing human microvascular endothelial cells (HMEC-1) with empty vector transfected or doxCODD cells. In view of the possibility of sustained activation inducing a negative feedback loop we opted to test the effects of intermittent induction. […]

HIF = experiment: Induction of HIF in tissue culture by esterified equivalents; type: cell-based; details: In-vivo esterified equivalent
C. elegans = experiment: Immunoblot of ceHIF (HIF-1) in extracts of treated worms; type: in vivo; details: 1 mM, 21% oxygen, wild type worms
Procedure: Immunoblots of ceHIF levels in extracts of c. elegans were carried out to monitor regulation by hypoxia and iron chelation. Firstly, the oxygen dependence of protein induction was analysed. Worms were grown on plates in bell jars flushed with air (N), or with oxygen/balance nitrogen having an oxygen concentration of 5%, 1%, 0.5% or 0.1% for 18 hrs. A graded increase in protein level was seen as the oxygen level was reduced below 5% with the highest level of induction at 0.5 and 0.1% oxygen concentration. The time course of protein induction was then studied. Worms were grown in bell jars flushed with a 0.1% oxygen/balance nitrogen mixture for 0, 4, 8, 16 or 24 hrs before preparation of extracts. […] The time course of protein decay on re-oxygenation was then assessed. Worms were grown in bell jars flushed with air (N) or a 0.1% oxygen/balance nitrogen mixture. Extracts were made either immediately, or after 4 and 8 minutes of re-oxygenation. Decay of ceHIF protein was very rapid on re-oxygenation. […] A time course RNAse protection assay showing cehif mRNA levels in worms exposed to 0.1% oxygen/balance nitrogen for 0, 4, 8, 16 and 24 hrs was carried out. No induction of ceHIF mRNA by hypoxia was seen. […] Induction by iron chelation was also studied in C. elegans. […]

Hep3b and U20S cells = experiment: Gal4/HIF-1α 775-826 carboxy terminal transactivator luciferase reporter assay; type: cell-based, human; details: normoxia or 2% hypoxia overnight
Procedure: Hep3b and U20S cells were co-transfected with a mixture of three plasmids; pUAS.tk.luc, encoding a GAL 4 responsive luciferase gene, pgal-hif775-826, a mammalian expression plasmid leading to expression of a fusion between a 147 amino acid DNA binding domain of GAL 4 and the carboxy terminal transactivator of human HIF-1 alpha, and pCMV.beta-gal, encoding a constitutively expressed beta-galactosidase gene as a transfection control.
48 hours following transfection, cells were incubated in normoxia or 2% hypoxia overnight in the presence or absence of dimethyl oxalyl glycine as indicated. Cell lysates were assayed for luciferase and beta galactosidase activity and the relative luciferase activity in each sample determined.

COC(=O)CNC(=O)C(=O)OC [dimethyloxalylglycine]
inhibition of HIF hydroxylase / HPH [1]: act as inhibitors
blood vessels in sponges (von Willebrand factor) [2]: Considerably more blood vessels
Induction of HIF in tissue culture (HIF): Yes
ceHIF (HIF-1) protein level in normoxia (C. elegans): substantial increase in the amount of immunodetectable ceHIF; also recorded: strongly induced HIF-1
relative luciferase activity (carboxy terminal transactivator) (Hep3b and U20S cells): enhanced activity of the carboxy terminal transactivator
